Measurements: patent US20240383887A1, “DEUTERATED IRAK DEGRADERS AND USES THEREOF” (Kymera Therapeutics, Inc., priority 2021, published 2024)

What was measured:
IRAK4 = molecular target: T1, IRAK4 (Homo sapiens, UniProt Q9NWZ3); assay: IRAK4 MSD degradation in OCI-LY10; type: cell-based; conditions: OCI-LY10 cells, 24 hrs, Meso Scale Discovery; read-out: IRAK4 MSD degradation in OCI-LY10 at 24 hrs: Average external-Abs DC50
T1 construct: endogenous in cells; host or cells: OCI-LY10
T1 sequence (Q9NWZ3 1-460): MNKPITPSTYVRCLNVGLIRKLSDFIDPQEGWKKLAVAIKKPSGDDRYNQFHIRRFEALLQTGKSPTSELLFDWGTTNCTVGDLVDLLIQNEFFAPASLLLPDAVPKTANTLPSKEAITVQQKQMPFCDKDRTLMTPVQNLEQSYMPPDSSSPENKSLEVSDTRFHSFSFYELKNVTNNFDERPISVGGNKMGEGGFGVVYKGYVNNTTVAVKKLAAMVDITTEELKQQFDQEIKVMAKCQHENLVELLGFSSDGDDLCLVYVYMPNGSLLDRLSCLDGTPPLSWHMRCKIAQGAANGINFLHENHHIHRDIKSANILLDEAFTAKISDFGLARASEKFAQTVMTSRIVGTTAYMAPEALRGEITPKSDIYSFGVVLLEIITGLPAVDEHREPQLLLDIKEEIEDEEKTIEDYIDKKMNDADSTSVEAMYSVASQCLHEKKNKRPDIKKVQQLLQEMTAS
Protocol: Degradation of IRAK4 in OCI-LY10 was quantitatively measured using Meso Scale Discovery technology. OCI-LY10 cells were seeded in 96-well plates (Corning 3799) with a density of 300,000 cells per well in 100 μL fresh media. Compounds were then added to the assay plates with a final top concentration of 1 to 10 μM in a 1:3 dilution series with total of 8 doses. The assay plates were then incubated for 4 to 24 hours at 37 under 5% CO2. The assay plates were then centrifuged for 5 minutes and the cell pellets were treated with 100 μL/well RIPA lysis buffer (Boston BioProducts BP-115D) with proteinase inhibitors. To prepare MSD assay plates (Meso Scale Discovery Catalog number L15XA-3), the plates were coated with 2 μg/mL capture antibody (mouse Anti-IRAK4 antibody [2H9], ab119942) in PBS, at 40 μL/well. […] The assay plates were then incubated at room temperature for 1 hour, washed 3 times with 150 μL/well TBST buffer, and 150 μL/well MSD reading buffer (Meso Scale Discovery catalog number R92TC-2) was added. The plates were then analyzed by a MSD reader (Meso Scale Discovery, Model Quick Plex SQ 120). The data was then analyzed by software Prism 7.0 from GraphPad and the dose-depended IRAK4 degradation were fit using a three-parameter logistic equation to calculate DC50. […]

OCI-LY10 cells = assay: CTG Cell Viability Assay with OCI-LY10; type: cell-based; conditions: Homo sapiens, 96 h, 4 days, CellTiter-Glo, read-out: CTG Cell Viability in OCI-LY10: Average external DC50
Protocol: Compound-mediated viability effect on OCI-LY10 or TMD8 was quantitatively determined using the CellTiter-Glo® Luminescent Cell Viability Assay kit from Promega (Catalog number G7570) following manufacturer's recommended procedures. Briefly, OCI-LY10 cells were seeded into 384 well plates (Grenier Bio-One, Catalog number 781080) with a density of 10,000 cells per well. Compounds were then added to the assay plate with final top concentration of 10 μM and 1:3 dilution series with total of 9 doses. The final DMSO concentration was normalized to 0.2%. The assay plates were incubated at 37° C. for 4 days under 5% CO2. Then the assay plate was equilibrated at room temperature for 10 minutes. To determine cell viability, 30 μL Cell Titer Glo reagent was added to each well and the assay plate was centrifuged at 1000 rpm for 30 second, incubated at room temperature for 10 min, and analyzed by detecting the luminescence using a multimode plate reader (EnVision 2105, PerkinElmer). The data was then analyzed by software Prism 7.0 from GraphPad and the dose response curves were fit using a three-parameter logistic equation to calculate IC50.
The letter codes for IRAK4 IC50 include: A (<0.05 μM), B (0.05-0.1 μM), C (0.1-0.5 μM), D (0.5-1.0 μM), and E (>1.0 μM).

DC50 (IRAK4): < 0.01 µM | IC50 (OCI-LY10 cells): 0.1 to 0.5 µM
SMILES: [2H]C([2H])([2H])C(O)(c1cc2nc([C@H]3CC[C@H](CN4CC5(CC(CCNc6cccc7c6C(=O)N(C6CCC(=O)NC6=O)C7=O)C5)C4)CC3)sc2cc1NC(=O)c1cccc(C(F)(F)F)n1)C([2H])([2H])[2H] (some centres unmarked) [Compound I-1, N-[2-[4-[[6-[2-[[2-(2,6-dioxo-3-piperidyl)-1,3-dioxo-isoindolin-4-yl]amino]ethyl]-2-azaspiro[3.3]heptan-2-yl]methyl]cyclohexyl]-5-[2,2,2-trideuterio-1-hydroxy-1-(trideuteriomethyl)ethyl]-1,3-benzothiazol-6-yl]-6-(trifluoromethyl)pyridine-2-carboxamide]
